Test system: 422866-222-R5-J1-PDC complex spheroid viability
Assay: Anticancer human tumor 422866-222-R5-J1-PDC patient-derived pancreatic adenocarcinoma cell line growth inhibition [POLQ]
Details: for IC50: curve of first compound; for viability, T/C: stronger effect = lower value
Outline: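 Three-cell-type spheroids modelling solid tumor plus stroma served as the readout system; POL inhibitors were tested individually and in combination, concentration ranges set by clinical Cmax where known.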

[1] = second compound 0.0316 µM, first compound 0.0316 µM
[2] = second compound 0.0316 µM, first compound 0.1 µM
[3] = second compound 0.0316 µM, first compound 0.316 µM
[4] = second compound 0.0316 µM, first compound 1 µM
[5] = second compound 0.0316 µM, first compound 3.16 µM
[6] = second compound 0.0316 µM, first compound 10 µM
[7] = second compound 0.1 µM, first compound 0.0316 µM
[8] = second compound 0.1 µM, first compound 0.1 µM
[9] = second compound 0.1 µM, first compound 0.316 µM
[10] = second compound 0.1 µM, first compound 1 µM
[11] = second compound 0.1 µM, first compound 3.16 µM
[12] = second compound 0.1 µM, first compound 10 µM
[13] = second compound 0.316 µM, first compound 0.0316 µM
[14] = second compound 0.316 µM, first compound 0.1 µM
[15] = second compound 0.316 µM, first compound 0.316 µM
[16] = second compound 0.316 µM, first compound 1 µM
[17] = second compound 0.316 µM, first compound 3.16 µM
[18] = second compound 0.316 µM, first compound 10 µM
[19] = second compound 1 µM, first compound 0.0316 µM
[20] = second compound 1 µM, first compound 0.1 µM
[21] = second compound 1 µM, first compound 0.316 µM
[22] = second compound 1 µM, first compound 1 µM
[23] = second compound 1 µM, first compound 3.16 µM
[24] = second compound 1 µM, first compound 10 µM
[25] = second compound 3.16 µM, first compound 0.0316 µM
[26] = second compound 3.16 µM, first compound 0.1 µM
[27] = second compound 3.16 µM, first compound 0.316 µM
[28] = second compound 3.16 µM, first compound 1 µM
[29] = second compound 3.16 µM, first compound 3.16 µM
[30] = second compound 3.16 µM, first compound 10 µM
[31] = second compound 10 µM, first compound 0.0316 µM
[32] = second compound 10 µM, first compound 0.1 µM
[33] = second compound 10 µM, first compound 0.316 µM
[34] = second compound 10 µM, first compound 1 µM
[35] = second compound 10 µM, first compound 3.16 µM
[36] = second compound 10 µM, first compound 10 µM
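Also: spheroids exposed to compounds for one week before readout.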
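For viability, T/C in this document: percent of DMSO vehicle wells luminescence so 100% = untreated viability.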

`C=CC(=O)N1CCN(c2nc(=O)n(-c3c(C)ccnc3C(C)C)c3nc(-c4c(O)cccc4F)c(F)cc23)C(C)C1` (stereo not drawn) + Nc1ccc(C#CCN(C(=O)Cc2ncc(C(F)(F)F)cc2C(F)(F)F)c2ccc(F)cc2)nn1 was tested, and the IC50 (second compound 0.0316 µM) was < 0.0316 µM, the IC50 (second compound 0.1 µM) was < 0.0316 µM and the IC50 (second compound 0.316 µM) was < 0.0316 µM. The IC50 (second compound 1 µM) was < 0.0316 µM, the IC50 (second compound 3.16 µM) was < 0.0316 µM and the IC50 (second compound 10 µM) was < 0.0316 µM. It also gave a viability, T/C [1] of 32.5%, a viability, T/C [2] of 28.5% and a viability, T/C [3] of 28.3%. The viability, T/C [4] was 28.5%, the viability, T/C [5] was 27.4% and the viability, T/C [6] was 23.7%. It also gave a viability, T/C [7] of 32%, a viability, T/C [8] of 31.2% and a viability, T/C [9] of 24%. For the same compound, the viability, T/C [10] was 25.7%, the viability, T/C [11] was 23.7% and the viability, T/C [12] was 22.4%. For the same compound, the viability, T/C [13] was 40.1%, the viability, T/C [14] was 27.8% and the viability, T/C [15] was 29%. It also gave a viability, T/C [16] of 24.4%, a viability, T/C [17] of 25.1% and a viability, T/C [18] of 24.2%. The viability, T/C [19] was 34%, the viability, T/C [20] was 33.1% and the viability, T/C [21] was 25.9%. It also gave a viability, T/C [22] of 23.2%, a viability, T/C [23] of 22.2% and a viability, T/C [24] of 21.1%. For the same compound, the viability, T/C [25] was 33.4%, the viability, T/C [26] was 27.7% and the viability, T/C [27] was 29.6%. The viability, T/C [28] was 24.5%, the viability, T/C [29] was 24.4% and the viability, T/C [30] was 29.1%. For the same compound, the viability, T/C [31] was 30.8%, the viability, T/C [32] was 32.6% and the viability, T/C [33] was 32.4%. It also gave a viability, T/C [34] of 26.3%, a viability, T/C [35] of 24.9% and a viability, T/C [36] of 27.6%.
`CC(C)n1c(=O)n(C)c2cnc3cc(F)c(-c4ccc(OCCCN5CCCCC5)nc4)cc3c21` + Nc1ccc(C#CCN(C(=O)Cc2ncc(C(F)(F)F)cc2C(F)(F)F)c2ccc(F)cc2)nn1 was tested, and the IC50 (second compound 0.0316 µM) was > 10 µM, the IC50 (second compound 0.1 µM) was > 10 µM and the IC50 (second compound 0.316 µM) was > 10 µM. For the same compound, the IC50 (second compound 1 µM) was > 10 µM, the IC50 (second compound 3.16 µM) was > 10 µM and the IC50 (second compound 10 µM) was 9.87 µM. The viability, T/C [1] was 116%, the viability, T/C [2] was 116% and the viability, T/C [3] was 90.3%. For the same compound, the viability, T/C [4] was 99.3%, the viability, T/C [5] was 90.7% and the viability, T/C [6] was 62.2%. For the same compound, the viability, T/C [7] was 88.6%, the viability, T/C [8] was 102% and the viability, T/C [9] was 97.5%. It also gave a viability, T/C [10] of 88.3%, a viability, T/C [11] of 82.8% and a viability, T/C [12] of 66.2%. It also gave a viability, T/C [13] of 114%, a viability, T/C [14] of 109% and a viability, T/C [15] of 95.1%. For the same compound, the viability, T/C [16] was 105%, the viability, T/C [17] was 71.8% and the viability, T/C [18] was 53.3%. It also gave a viability, T/C [19] of 107%, a viability, T/C [20] of 110% and a viability, T/C [21] of 108%. For the same compound, the viability, T/C [22] was 91.2%, the viability, T/C [23] was 85.2% and the viability, T/C [24] was 59.1%. The viability, T/C [25] was 100%, the viability, T/C [26] was 105% and the viability, T/C [27] was 114%. It also gave a viability, T/C [28] of 76.4%, a viability, T/C [29] of 71.3% and a viability, T/C [30] of 60.8%. The viability, T/C [31] was 96.8%, the viability, T/C [32] was 110% and the viability, T/C [33] was 87.9%. It also gave a viability, T/C [34] of 92.5%, a viability, T/C [35] of 94.4% and a viability, T/C [36] of 49.5%.
With `CC1COCCN1c1cc(-c2ccnn2C)c2ccnc(-c3ccn[nH]3)c2n1` (stereo not drawn) + Nc1ccc(C#CCN(C(=O)Cc2ncc(C(F)(F)F)cc2C(F)(F)F)c2ccc(F)cc2)nn1 the IC50 (second compound 0.0316 µM) was > 10 µM, the IC50 (second compound 0.1 µM) was > 10 µM and the IC50 (second compound 0.316 µM) was > 10 µM. For the same compound, the IC50 (second compound 1 µM) was 10 µM, the IC50 (second compound 3.16 µM) was 0.232 µM and the IC50 (second compound 10 µM) was > 10 µM. It also gave a viability, T/C [1] of 110%, a viability, T/C [2] of 52.5% and a viability, T/C [3] of 35.8%. For the same compound, the viability, T/C [4] was 31.4%, the viability, T/C [5] was 72.4% and the viability, T/C [6] was 67.8%. The viability, T/C [7] was 112%, the viability, T/C [8] was 49.3% and the viability, T/C [9] was 44.4%. For the same compound, the viability, T/C [10] was 37.4%, the viability, T/C [11] was 45% and the viability, T/C [12] was 81.1%. The viability, T/C [13] was 90.7%, the viability, T/C [14] was 45.4% and the viability, T/C [15] was 33.7%. For the same compound, the viability, T/C [16] was 34%, the viability, T/C [17] was 68.2% and the viability, T/C [18] was 83.4%. The viability, T/C [19] was 87%, the viability, T/C [20] was 62.4% and the viability, T/C [21] was 38.5%. It also gave a viability, T/C [22] of 29.9%, a viability, T/C [23] of 61.5% and a viability, T/C [24] of 73%. For the same compound, the viability, T/C [25] was 96.6%, the viability, T/C [26] was 51.6% and the viability, T/C [27] was 32.6%. The viability, T/C [28] was 29.8%, the viability, T/C [29] was 61.5% and the viability, T/C [30] was 74.2%. The viability, T/C [31] was 102%, the viability, T/C [32] was 41.1% and the viability, T/C [33] was 39.6%. The viability, T/C [34] was 36.2%, the viability, T/C [35] was 79.8% and the viability, T/C [36] was 74.8%.
In the case of `CC1COCCN1c1cc(C2(S(C)(=N)=O)CC2)nc(-c2ccnc3[nH]ccc23)n1` (stereo not drawn) + Nc1ccc(C#CCN(C(=O)Cc2ncc(C(F)(F)F)cc2C(F)(F)F)c2ccc(F)cc2)nn1, the IC50 (second compound 0.0316 µM) is reported as 2.46 µM, the IC50 (second compound 0.1 µM) is reported as 1.83 µM and the IC50 (second compound 0.316 µM) is reported as 1.75 µM. It also gave an IC50 (second compound 1 µM) of 2.12 µM, an IC50 (second compound 3.16 µM) of 1.74 µM and an IC50 (second compound 10 µM) of 1.9 µM. For the same compound, the viability, T/C [1] was 105%, the viability, T/C [2] was 81.7% and the viability, T/C [3] was 80.9%. The viability, T/C [4] was 64.5%, the viability, T/C [5] was 38% and the viability, T/C [6] was 42.6%. The viability, T/C [7] was 92%, the viability, T/C [8] was 96.5% and the viability, T/C [9] was 95.3%. It also gave a viability, T/C [10] of 58.9%, a viability, T/C [11] of 41.4% and a viability, T/C [12] of 42.2%. The viability, T/C [13] was 89.8%, the viability, T/C [14] was 96% and the viability, T/C [15] was 89.7%. For the same compound, the viability, T/C [16] was 65.6%, the viability, T/C [17] was 32.5% and the viability, T/C [18] was 34%. The viability, T/C [19] was 107%, the viability, T/C [20] was 112% and the viability, T/C [21] was 92.4%. It also gave a viability, T/C [22] of 70.5%, a viability, T/C [23] of 38.7% and a viability, T/C [24] of 28.2%. It also gave a viability, T/C [25] of 87.3%, a viability, T/C [26] of 108% and a viability, T/C [27] of 98.8%. For the same compound, the viability, T/C [28] was 57.2%, the viability, T/C [29] was 40.8% and the viability, T/C [30] was 43.5%. The viability, T/C [31] was 109%, the viability, T/C [32] was 117% and the viability, T/C [33] was 102%. The viability, T/C [34] was 65.9%, the viability, T/C [35] was 37.8% and the viability, T/C [36] was 31.8%.

Source: PubChem BioAssay AID1963844 (Molecular Pharmacology Branch, DTP, NCI, 2024)
